≈ marks a conversion by molar mass, not a printed value. Read-outs that look alike come from different tables or passages of the source.
Assays:
[1] = Solubility of test articles in stock solutions and at final test concentrations; format: physicochemical; details: stock solution in DMSO:water (1:1)
Method: Test articles of stock solutions of daptomycin (Cubist, lot MCB2007) and TR-700 were prepared at 40 times the final target concentration in DMSO:water (1:1). DMSO was added first, the solutions were allowed to stand for 60 minutes and then the water was added. […] The final DMSO concentration was 2.5%. The final drug concentrations in the FIC assay plates were set to bracket the MIC value of each test article for each test organism, unless the strain was totally resistant to the test article.

S. aureus MW2 (NRS123) = assay: microbe, parasite or virus in culture; format: cell-based, Staphylococcus aureus; details: for MIC: Staphylococcus aureus
Summary of the method: (§1)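 MW2 passaged on cation-adjusted Mueller-Hinton II agar with ¼ MIC of TR-700, TR-705, LZD, TIA, CLI, TET, VAN or TMP/SMX plus a linear DAP gradient; ATCC 33591 with ¼ MIC TR-700, TMP/SMX or VAN; DAP-only controls.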

S. aureus ATCC 33591 = assay: microbe, parasite or virus in culture; format: cell-based, Staphylococcus aureus; details: for MIC: Staphylococcus aureus
Summary of the method: as §1

Structure (SMILES): Cn1nnc(-c2ccc(-c3ccc(N4C[C@H](CO)OC4=O)cc3F)cn2)n1 [TR-700, Tedizolid]
- concentration above which a precipitate formed [1]: above 1280 μg/ml
- DAP MIC lower than DAP-only control (S. aureus MW2 (NRS123); MW2, after 30 passages, co-selecting agent at ¼ MIC, total population): 16 fold
- MIC (S. aureus MW2 (NRS123); NRS123, passage 0, NRS123 WT): 0.5 µg/mL (≈ 1.35 µM)
- MIC (S. aureus MW2 (NRS123); NRS123, passage 5, selection group DAP): 0.5 µg/mL (≈ 1.35 µM)
- MIC (S. aureus MW2 (NRS123); NRS123, passage 5, selection group DAP + CLI): 0.5 µg/mL
- MIC (S. aureus MW2 (NRS123); NRS123, passage 5, selection group DAP + LZD): 0.5 µg/mL
- MIC (S. aureus MW2 (NRS123); NRS123, passage 5, selection group DAP + TET): 0.5 µg/mL
- MIC (S. aureus MW2 (NRS123); NRS123, passage 5, selection group DAP + TIA): 0.5 µg/mL
- MIC (S. aureus MW2 (NRS123); NRS123, passage 5, selection group DAP + TMP/SMX): 0.25 µg/mL
- MIC (S. aureus MW2 (NRS123); NRS123, passage 5, selection group DAP + TR-700): 0.5 µg/mL
- MIC (S. aureus MW2 (NRS123); NRS123, passage 5, selection group DAP + TR-705): 0.5 µg/mL
- MIC (S. aureus MW2 (NRS123); NRS123, passage 5, selection group DAP + VAN): 0.25 µg/mL
- MIC (S. aureus MW2 (NRS123); NRS123, passage 10, selection group DAP): 0.5 µg/mL (≈ 1.35 µM)
- MIC (S. aureus MW2 (NRS123); NRS123, passage 10, selection group DAP + CLI): 0.5 µg/mL
- MIC (S. aureus MW2 (NRS123); NRS123, passage 10, selection group DAP + LZD): 0.5 µg/mL
- MIC (S. aureus MW2 (NRS123); NRS123, passage 10, selection group DAP + TET): 0.5 µg/mL
- MIC (S. aureus MW2 (NRS123); NRS123, passage 10, selection group DAP + TIA): 0.5 µg/mL
- MIC (S. aureus MW2 (NRS123); NRS123, passage 10, selection group DAP + TMP/SMX): 0.5 µg/mL
- MIC (S. aureus MW2 (NRS123); NRS123, passage 10, selection group DAP + TR-700): 0.5 µg/mL
- MIC (S. aureus MW2 (NRS123); NRS123, passage 10, selection group DAP + TR-705): 0.5 µg/mL
- MIC (S. aureus MW2 (NRS123); NRS123, passage 10, selection group DAP + VAN): 0.25 µg/mL
- MIC (S. aureus MW2 (NRS123); NRS123, passage 15, selection group DAP): 0.25 µg/mL (≈ 0.675 µM)
- MIC (S. aureus MW2 (NRS123); NRS123, passage 15, selection group DAP + CLI): 0.25 µg/mL
- MIC (S. aureus MW2 (NRS123); NRS123, passage 15, selection group DAP + LZD): 0.5 µg/mL
- MIC (S. aureus MW2 (NRS123); NRS123, passage 15, selection group DAP + TET): 0.25 µg/mL
- MIC (S. aureus MW2 (NRS123); NRS123, passage 15, selection group DAP + TIA): 0.5 µg/mL
- MIC (S. aureus MW2 (NRS123); NRS123, passage 15, selection group DAP + TMP/SMX): 0.5 µg/mL
- MIC (S. aureus MW2 (NRS123); NRS123, passage 15, selection group DAP + TR-700): 0.5 µg/mL
- MIC (S. aureus MW2 (NRS123); NRS123, passage 15, selection group DAP + TR-705): 0.5 µg/mL
- MIC (S. aureus MW2 (NRS123); NRS123, passage 15, selection group DAP + VAN): 0.5 µg/mL
- MIC (S. aureus MW2 (NRS123); NRS123, passage 20, selection group DAP): 0.5 µg/mL (≈ 1.35 µM)
- MIC (S. aureus MW2 (NRS123); NRS123, passage 20, selection group DAP + CLI): 0.25 µg/mL
- MIC (S. aureus MW2 (NRS123); NRS123, passage 20, selection group DAP + LZD): 0.5 µg/mL
- MIC (S. aureus MW2 (NRS123); NRS123, passage 20, selection group DAP + TET): 0.25 µg/mL
- MIC (S. aureus MW2 (NRS123); NRS123, passage 20, selection group DAP + TIA): 0.5 µg/mL
- MIC (S. aureus MW2 (NRS123); NRS123, passage 20, selection group DAP + TMP/SMX): 0.5 µg/mL
- MIC (S. aureus MW2 (NRS123); NRS123, passage 20, selection group DAP + TR-700): 0.5 µg/mL
- MIC (S. aureus MW2 (NRS123); NRS123, passage 20, selection group DAP + TR-705): 0.5 µg/mL
- MIC (S. aureus MW2 (NRS123); NRS123, passage 20, selection group DAP + VAN): 0.5 µg/mL
- MIC (S. aureus MW2 (NRS123); NRS123, passage 25, selection group DAP): 0.25 µg/mL (≈ 0.675 µM)
- MIC (S. aureus MW2 (NRS123); NRS123, passage 25, selection group DAP + CLI): 0.25 µg/mL
- MIC (S. aureus MW2 (NRS123); NRS123, passage 25, selection group DAP + LZD): 0.25 µg/mL
- MIC (S. aureus MW2 (NRS123); NRS123, passage 25, selection group DAP + TET): 0.25 µg/mL
- MIC (S. aureus MW2 (NRS123); NRS123, passage 25, selection group DAP + TIA): 0.5 µg/mL
- MIC (S. aureus MW2 (NRS123); NRS123, passage 25, selection group DAP + TMP/SMX): 0.25 µg/mL
- MIC (S. aureus MW2 (NRS123); NRS123, passage 25, selection group DAP + TR-700): 0.5 µg/mL
- MIC (S. aureus MW2 (NRS123); NRS123, passage 25, selection group DAP + TR-705): 0.5 µg/mL
- MIC (S. aureus MW2 (NRS123); NRS123, passage 25, selection group DAP + VAN): 0.25 µg/mL
- MIC (S. aureus MW2 (NRS123); NRS123, passage 30, selection group DAP): 0.25 µg/mL (≈ 0.675 µM)
- MIC (S. aureus MW2 (NRS123); NRS123, passage 30, selection group DAP + CLI): 0.25 µg/mL
- MIC (S. aureus MW2 (NRS123); NRS123, passage 30, selection group DAP + LZD): 0.5 µg/mL
- MIC (S. aureus MW2 (NRS123); NRS123, passage 30, selection group DAP + TET): 0.25 µg/mL
- MIC (S. aureus MW2 (NRS123); NRS123, passage 30, selection group DAP + TIA): 0.5 µg/mL
- MIC (S. aureus MW2 (NRS123); NRS123, passage 30, selection group DAP + TMP/SMX): 0.5 µg/mL
- MIC (S. aureus MW2 (NRS123); NRS123, passage 30, selection group DAP + TR-700): 0.5 µg/mL
- MIC (S. aureus MW2 (NRS123); NRS123, passage 30, selection group DAP + TR-705): 0.5 µg/mL
- MIC (S. aureus MW2 (NRS123); NRS123, passage 30, selection group DAP + VAN): 0.25 µg/mL
- MIC (S. aureus MW2 (NRS123); NRS123, read-out: DAP MIC by the end of the experiment (selection of DAP^ns strains), MW2, passaged with DAP alone or with co-selecting agent at ¼ MIC, CLSI breakpoint): > 1 µg/mL
- susceptibility to the co-selecting agent in its co-selection group (S. aureus MW2 (NRS123); over the course of 30 passages): did not demonstrate reduced susceptibility to TR-700
- DAP MIC lower than DAP-only control (S. aureus ATCC 33591; ATCC 33591, co-selecting agent at ¼ MIC): 4 fold
- MIC (S. aureus ATCC 33591; ATCC33591, passage 0, ATCC 33591 WT): 0.5 µg/mL (≈ 1.35 µM)
- MIC (S. aureus ATCC 33591; ATCC33591, passage 5, selection group DAP): 0.125 µg/mL (≈ 0.338 µM)
- MIC (S. aureus ATCC 33591; ATCC33591, passage 5, selection group DAP + TMP/SMX): 0.5 µg/mL
- MIC (S. aureus ATCC 33591; ATCC33591, passage 5, selection group DAP + TR-700): 0.5 µg/mL
- MIC (S. aureus ATCC 33591; ATCC33591, passage 5, selection group DAP + VAN): 0.5 µg/mL
- MIC (S. aureus ATCC 33591; ATCC33591, passage 10, selection group DAP): 0.125 µg/mL (≈ 0.338 µM)
- MIC (S. aureus ATCC 33591; ATCC33591, passage 10, selection group DAP + TMP/SMX): 0.25 µg/mL
- MIC (S. aureus ATCC 33591; ATCC33591, passage 10, selection group DAP + TR-700): 0.5 µg/mL
- MIC (S. aureus ATCC 33591; ATCC33591, passage 10, selection group DAP + VAN): 0.5 µg/mL
- MIC (S. aureus ATCC 33591; ATCC33591, passage 15, selection group DAP): 0.125 µg/mL (≈ 0.338 µM)
- MIC (S. aureus ATCC 33591; ATCC33591, passage 15, selection group DAP + TMP/SMX): 0.25 µg/mL
- MIC (S. aureus ATCC 33591; ATCC33591, passage 15, selection group DAP + TR-700): 0.5 µg/mL
- MIC (S. aureus ATCC 33591; ATCC33591, passage 15, selection group DAP + VAN): 0.25 µg/mL
- MIC (S. aureus ATCC 33591; ATCC33591, passage 20, selection group DAP): 0.125 µg/mL (≈ 0.338 µM)
- MIC (S. aureus ATCC 33591; ATCC33591, passage 20, selection group DAP + TMP/SMX): 0.25 µg/mL
- MIC (S. aureus ATCC 33591; ATCC33591, passage 20, selection group DAP + TR-700): 0.5 µg/mL
- MIC (S. aureus ATCC 33591; ATCC33591, passage 20, selection group DAP + VAN): 0.5 µg/mL
- MIC (S. aureus ATCC 33591; ATCC33591, passage 25, selection group DAP): 0.125 µg/mL (≈ 0.338 µM)
- MIC (S. aureus ATCC 33591; ATCC33591, passage 25, selection group DAP + TMP/SMX): 0.25 µg/mL
- MIC (S. aureus ATCC 33591; ATCC33591, passage 25, selection group DAP + TR-700): 0.25 µg/mL
- MIC (S. aureus ATCC 33591; ATCC33591, passage 25, selection group DAP + VAN): 0.25 µg/mL
- MIC (S. aureus ATCC 33591; ATCC33591, passage 30, selection group DAP): 0.125 µg/mL (≈ 0.338 µM)
- MIC (S. aureus ATCC 33591; ATCC33591, passage 30, selection group DAP + TMP/SMX): 0.25 µg/mL
- MIC (S. aureus ATCC 33591; ATCC33591, passage 30, selection group DAP + TR-700): 0.5 µg/mL
- MIC (S. aureus ATCC 33591; ATCC33591, passage 30, selection group DAP + VAN): 0.5 µg/mL
- MIC (S. aureus ATCC 33591; ATCC33591, read-out: DAP MIC of the co-selection passage group, ATCC 33591, through P15, co-selecting agent at ¼ MIC): ≤ 1 µg/mL

Reference: patent US20130274174A1, “THERAPEUTIC COMBINATION OF DAPTOMYCIN AND PROTEIN SYNTHESIS INHIBITOR ANTIBIOTIC, AND METHODS OF USE” (priority 2011, published 2013)
